From PMC11241437, “Structure-Based Analysis of Cefaclor Pharmacokinetic Diversity According to Human Peptide Transporter-1 Genetic Polymorphism” (International Journal of Molecular Sciences, 2024)

Experiments:
clinical = settings: male, human, in vivo, po, 250 mg
Protocol: Cefaclor bioequivalence results in 24 healthy Korean men obtained from a previous study were reused for the analysis of cefaclor pharmacokinetics according to PEPT1 genetic polymorphisms in this study. Among the previous bioequivalence results, those for the test formulation were excluded, and only the clinical results for the reference drug, cefaclor 250 mg capsule (Eli Lilly and Company, Indianapolis, IN, USA; Lot number: L1692Y1) were used. […] Table S2 presents the demographic information of the subjects, including physiological and biochemical parameters. The determination of clinical biochemical parameter values was performed by serological analysis through a dry automated analyzer. The analytical instrument was a microside VITROS (Ortho Clinical Diagnostics, Raritan, NJ, USA) operated by reflectance spectrophotometry. Information on the selection and progress of clinical trial participants is presented in Supplementary Information S1, and information on clinical trial design and sampling is presented in Supplementary Information S2. The clinical trial protocol was thoroughly reviewed and officially approved (approval number: 112; 09.03.2004) by the Institutional Review Board of the Institute of Bioequivalence and Bridging Study (Gwangju, Republic of Korea). Information on the high-performance liquid chromatography-ultraviolet (HPLC-UV) method used to quantify cefaclor in plasma samples is briefly presented in Supplementary Information S3.
Genetic polymorphism information for all subjects participating in the clinical trial could be obtained using blank plasma samples derived from each subject. The genetic information targeted in this study was SLC15A1 exons 5 and 16 as the PEPT1 coding gene. SNPs in SLC15A1 exons 5 and 16 were analyzed through pyrosequencing and restriction fragment length polymorphism (RFLP) via polymerase chain reaction (PCR), respectively. The target SNPs in SLC15A1 exons 5 and 16 were c.381G>A and c.1287G>C, respectively, and the genetic polymorphism analysis methods for these were presented in Supplementary Information S4.
The results of the analysis of plasma concentration over time after single oral administration of cefaclor 250 mg capsule could be calculated as cefaclor pharmacokinetic parameter values through non-compartmental analysis (NCA). NCA was performed using Phoenix WinNonlin software (version 8.4, Certara Inc., Princeton, NJ, USA). The main calculated pharmacokinetic parameters are area under the curve in a plasma concentration-time graph (AUC), clearance (CL/F), peak plasma drug concentration after administration (Cmax), elimination half-life (T1/2), mean residence time (MRT), time to reach Cmax (Tmax), and volume of the distribution (V/F). Specific calculation methods for pharmacokinetic parameters are presented in Supplementary Information S5. The calculated pharmacokinetic parameter values were classified according to the genetic polymorphisms of SLC15A1 exons 5 and 16 and compared between genotype groups. Comparison of significant differences between the three genotype groups (SLC15A1 exon 5) was performed using one-way analysis of variance (ANOVA), and comparison of significant differences between two genotype groups (SLC15A1 exon 16) was performed using a two-tailed t test. All significance judgments in statistical tests were based on a p value of 0.05. Additionally, differences in pharmacokinetics between groups were confirmed through a graphic comparison of cefaclor plasma concentration profiles between genotypes classified according to genetic polymorphisms of SLC15A1 exons 5 and 16.
Supplementary Information S2
Clinical trial design and sampling
This bioequivalence study was performed as randomized, single-dose, open-label, crossover, and two-way studies (with a washout period of 7 days). Prior to the clinical trial, subjects had a heparin-locked (150 unit/mL) JELCO 22G angio-catheter (Smiths Medical, Minneapolis, […]

PEPT1 = system: PEPT1; parameters: method as in PMID 9950279; settings: Caco-2; cited from earlier work
[1] = format: in vitro ADME; settings: human
Protocol: Supplementary Information S3
Determination of cefaclor plasma concentrations
Concentrations of unchanged cefaclor in plasma were determined by applying high performance liquid chromatography coupled with an ultraviolet (HPLC-UV), which has been established and validated in previous studies. The LC10 ADvp system (Shimadzu Inc., Kyoto, Japan) was used as an analysis device. Briefly describing the analysis method, plasma samples were pretreated through liquid-liquid extraction using 6% (v/v) trichloroacetic acid and then selectively separated on a Symmetry C18 column (5 μm, 4.6 × 150 mm; Waters Co., Milford, MA, USA) using water (mobile phase A) and methanol (mobile phase B) as mobile phases.
The composition ratio of mobile phases A and B was isocratically eluted at 88:12 (v/v), and the quantification of cefaclor was performed at a wavelength of 265 nm. Cephradine, which has a similar structure to cefaclor, was used as an internal standard (IS), and the retention times in the column for cefaclor and IS were 15 min and 23 min, respectively. The lower limit of quantification was 0.1 μg/mL, and the linear calibration curve was secured with a coefficient of determination of 0.99 or higher up to the concentration range of 10 μg/mL. The […]
calibration curve. […]

SMILES | substrate interaction with PEPT1 (PEPT1) | other results
N[C@@H](C(=O)N[C@@H]1C(=O)N2C(C(=O)O)=C(Cl)CS[C@H]12)c1ccccc1 [cefaclor] | interaction substrate with PEPT1 | AUC (clinical; AUCall): 7590 ± 1520 ng·h/mL; AUC(0-inf) (clinical; AUCinf): 7740 ± 1530 ng·h/mL; Cmax (clinical; Cmax): 6510 ± 1900 ng/mL; MRT (clinical; MRT (mean residence time)): 75.6 ± 11.4 min; half-life (clinical; T1/2 (elimination half-life)): 36 ± 3.6 min; Tmax (clinical; Tmax): 49.2 ± 21 min
CC1=C(C(=O)O)N2C(=O)[C@@H](NC(=O)[C@H](N)c3ccc(O)cc3)[C@H]2SC1 [cefadroxil] | may have substrate interactions with PEPT1 | –
Cn1nnnc1SCC1=C(C(=O)O)N2C(=O)[C@@H](NC(=O)[C@H](O)c3ccccc3)[C@H]2SC1 [cefamandole] | may have substrate interactions with PEPT1 | –
C=CC1=C(C(=O)O)N2C(=O)[C@@H](NC(=O)/C(=N\OCC(=O)O)c3csc(N)n3)[C@H]2SC1 [cefixime] | may have substrate interactions with PEPT1 | –
CO/N=C(\C(=O)N[C@@H]1C(=O)N2C(C(=O)O)=C(COC(N)=O)CS[C@H]12)c1ccco1 [cefuroxime] | may have substrate interactions with PEPT1 | –
CC1=C(C(=O)O)N2C(=O)[C@@H](NC(=O)[C@H](N)c3ccccc3)[C@H]2SC1 [cephalexin] | may have substrate interactions with PEPT1 | –
CC(=O)OCC1=C(C(=O)O)N2C(=O)[C@@H](NC(=O)Cc3cccs3)[C@H]2SC1 [cephalotin] | may have substrate interactions with PEPT1 | –
CC1=C(C(=O)O)N2C(=O)[C@@H](NC(=O)[C@H](N)C3=CCC=CC3)[C@H]2SC1 [cephradine] | may have substrate interactions with PEPT1 | stabilities in plasma samples [1]: 85-115%
